Test system: upper airway collapsibility in anaesthetized, spontaneously breathing pigs
Assay: pig model of obstructive sleep apnea (OSA): upper airway collapsibility under negative pressure
Assay type: in vivo, German Landrace pigs
Details: for Percent pigs without collaps −50 cm H2O / Percent pigs without collaps −100 cm H2O / Percent pigs without collaps −150 cm H2O: i.v. bolus 0.3 mg/kg then i.v. infusion 0.1 mg/kg/h
Source text: The therapeutic potential of the compounds of formula (I) according to the present invention in sleep apnea has been assessed preclinically in a pig model of obstructive sleep apnea (OSA).
Using negative pressure, it is possible to induce collapse and thus obstruction of the upper respiratory tract in anaesthetized, spontaneously breathing pigs (Wirth K. J. et al., Sleep 36(5) (2013) pp. 699-708).
German Landrace pigs are used for the model. The pigs are anaesthetized and tracheotomized. Two tracheal are inserted into the trachea, one into the rostral part and the other into the caudal part of the trachea. Using a connection piece, the rostral cannula is connected to a tube to the negative pressure device and to the distal tracheal cannula. The distal tracheal cannula is additionally connected to a tube with an open end to atmosphere via a connection piece that served for free tracheal breathing, circumventing the upper airway. By appropriate opening and clamping of those tubes breathing can be switched from nasal breathing to breathing through the caudal tracheal cannula, circumventing the upper airway, and the (isolated) upper airway can be connected to the negative pressure device, causing airflow in the inspiratory direction.
At certain points in time, the collapsibility of the upper respiratory tract is tested by having the pig breathe via the caudal cannula and applying negative pressures of −50, −100 and −150 cm water head (cm H2O) to the upper respiratory tract. This causes the upper respiratory tract to collapse, which manifests itself in an interruption of the airflow and a pressure drop in the tube system. This test is conducted prior to the administration of the test substance and at certain intervals after the administration of the test substance. An appropriately effective test substance can prevent this collapse of the respiratory tract in the inspiratory phase.
In this OSA pig model, systemic application of the α2-Adrenoceptor subtype C (alpha-2C) antagonists of formula (I) (1S,12bS)-1-(methoxymethyl)-1-methyl-[…][2,3-a]quinolizine with i.v. bolus injection of 0.3 mg/kg followed by an i.v. infusion of 0.1 mg/kg/h for four hours inhibited upper airway collapsibility at all negative pressures of −50, −100 and −150 cm for more than 6 hours (see Table 1, 2 and 3 and FIG. 1).

[1] = time 0 min (time of administration)

SMILES: COC[C@@]1(C)CCCN2CCc3c(oc4ccccc34)[C@@H]21 [(1S,12bS)-1-(methoxymethyl)-1-methyl-1,3,4,6,7,12b-hexahydro-2H-[1]benzofuro[2,3-a]quinolizine]
- duration of inhibition of upper airway collapsibility (all negative pressures of −50, −100 and −150 cm, i.v. bolus 0.3 mg/kg followed by i.v. infusion 0.1 mg/kg/h for four hours): more than 6 hours
- Percent pigs without collaps −50 cm H2O [1]: 0%
- Percent pigs without collaps −100 cm H2O [1]: 0%
- Percent pigs without collaps −150 cm H2O [1]: 0%
- Percent pigs without collaps −50 cm H2O (time 10 min): 100%
- Percent pigs without collaps −100 cm H2O (time 10 min): 100%
- Percent pigs without collaps −150 cm H2O (time 10 min): 100%
- Percent pigs without collaps −50 cm H2O (time 60 min): 100%
- Percent pigs without collaps −100 cm H2O (time 60 min): 100%
- Percent pigs without collaps −150 cm H2O (time 60 min): 100%
- Percent pigs without collaps −50 cm H2O (time 120 min): 100%
- Percent pigs without collaps −100 cm H2O (time 120 min): 100%
- Percent pigs without collaps −150 cm H2O (time 120 min): 100%
- Percent pigs without collaps −50 cm H2O (time 180 min): 100%
- Percent pigs without collaps −100 cm H2O (time 180 min): 100%
- Percent pigs without collaps −150 cm H2O (time 180 min): 100%
- Percent pigs without collaps −50 cm H2O (time 240 min): 100%
- Percent pigs without collaps −100 cm H2O (time 240 min): 100%
- Percent pigs without collaps −150 cm H2O (time 240 min): 100%
- Percent pigs without collaps −50 cm H2O (time 300 min): 100%
- Percent pigs without collaps −100 cm H2O (time 300 min): 100%
- Percent pigs without collaps −150 cm H2O (time 300 min): 100%

Reference: patent US20220218677A1, “ARYLQUINOZILINE DERIVATIVES AS ALPHA2-ADRENOCEPTOR SUBTYPE C (ALPHA-2C) ANTAGONISTS FOR THE TREATMENT OF SLEEP APNEA” (Bayer Aktiengesellschaft, priority 2019, published 2022)
